These are literature values, as cited in US20250134923A1, “SUPERABSORBENT HYDROGELS WITH LIPASE INHIBITOR” (JUNION LABS PTE. LTD., priority 2021, published 2025).

The test system of this data set is fat absorption. Conditions: therapeutic doses (120 mg with meals).

Take `CCCCCCCCCCC[C@@H](C[C@@H]1OC(=O)[C@H]1CCCCCC)OC(=O)[C@H](CC(C)C)NC=O` [Orlistat, (2S,3S,5S)-5-[(S)-2-formamido4-methyl-valeryloxy]-2-hexyl-3-hydroxy-hexadecanoic 1,3 acid lactone]: the additional caloric deficit result is on record as “approximately 200 calories” and the “inhibition of fat absorption (of ingested fat)” value was “approximately 30%”.
